Where two headings read alike, the source gives them in different places.
Columns and labels:
[1] = system: gram-positive and gram-negative microorganisms; conditions: cited from earlier work
[2] = oral administration, cited from earlier work
[3] = cited from earlier work
[4] = Behaviour of amorphous cefuroxime axetil in contact with water (conversion to crystalline form, gel formation); type: physicochemical; conditions: formulation with sodium salt of citric acid

## CO/N=C(\C(=O)N[C@@H]1C(=O)N2C(C(=O)OC(C)OC(C)=O)=C(COC(N)=O)CS[C@H]12)c1ccco1 (stereo partly shown) [Cefuroxime axetil, 1-acetoxyethyl ester of cefuroxime]
[1]
  spectrum of activity: broad spectrum of activity

## CO/N=C(\C(=O)N[C@@H]1C(=O)N2C(C(=O)OC(C)OC(C)=O)=C(COC(N)=O)CS[C@H]12)c1ccco1 (stereo partly shown) [Crystalline cefuroxime axetil]
[2]
  bioavailability: does not exhibit adequate bioavailability

## CO/N=C(\C(=O)N[C@@H]1C(=O)N2C(C(=O)OC(C)OC(C)=O)=C(COC(N)=O)CS[C@H]12)c1ccco1 (stereo partly shown) [amorphous cefuroxime axetil]
[3]; contact with water
  gel formation: forms a gel which prolongs the disintegration and retards the dissolution
[3]; upon contact with water
  conversion to the crystalline form: gets converted to the crystalline form
[2]; listed as amorphous form of cefuroxime axetil
  bioavailability: high bioavailability
[2]; listed as highly pure amorphous cefuroxime axetil
  bioavailability: higher bioavailability than crystalline cefuroxime axetil
[4]
  tendency to form a gel on addition of a sodium salt of citric acid: inhibits the tendency of amorphous cefuroxime axetil to form a gel
